Assay results reported in patent publication US7655395B2, “Isolation and use of ryanodine receptors” (E.I. du Pont de Nemours and Company, priority 2002, dated 2010).

Tests used:
[1] = target: native cockroach ryanodine receptors (roach femoral muscle membranes) (Periplaneta americana, UniProt A0ABQ8T696); test: Radioligand displacement ([3H]-GN analog Cpd 1) on roach femoral muscle membranes; format: binding; conditions: for Radioligand Displacement (P. americana): Table 6, result in words; for IC50: displacement of [3H]-Cpd 1, roach muscle membranes, 60 min at 32° C., read-out: Displacement IC50 (nM) P. americana
Chain of native cockroach ryanodine receptors (roach femoral muscle membranes) (A0ABQ8T696 entry or part of it): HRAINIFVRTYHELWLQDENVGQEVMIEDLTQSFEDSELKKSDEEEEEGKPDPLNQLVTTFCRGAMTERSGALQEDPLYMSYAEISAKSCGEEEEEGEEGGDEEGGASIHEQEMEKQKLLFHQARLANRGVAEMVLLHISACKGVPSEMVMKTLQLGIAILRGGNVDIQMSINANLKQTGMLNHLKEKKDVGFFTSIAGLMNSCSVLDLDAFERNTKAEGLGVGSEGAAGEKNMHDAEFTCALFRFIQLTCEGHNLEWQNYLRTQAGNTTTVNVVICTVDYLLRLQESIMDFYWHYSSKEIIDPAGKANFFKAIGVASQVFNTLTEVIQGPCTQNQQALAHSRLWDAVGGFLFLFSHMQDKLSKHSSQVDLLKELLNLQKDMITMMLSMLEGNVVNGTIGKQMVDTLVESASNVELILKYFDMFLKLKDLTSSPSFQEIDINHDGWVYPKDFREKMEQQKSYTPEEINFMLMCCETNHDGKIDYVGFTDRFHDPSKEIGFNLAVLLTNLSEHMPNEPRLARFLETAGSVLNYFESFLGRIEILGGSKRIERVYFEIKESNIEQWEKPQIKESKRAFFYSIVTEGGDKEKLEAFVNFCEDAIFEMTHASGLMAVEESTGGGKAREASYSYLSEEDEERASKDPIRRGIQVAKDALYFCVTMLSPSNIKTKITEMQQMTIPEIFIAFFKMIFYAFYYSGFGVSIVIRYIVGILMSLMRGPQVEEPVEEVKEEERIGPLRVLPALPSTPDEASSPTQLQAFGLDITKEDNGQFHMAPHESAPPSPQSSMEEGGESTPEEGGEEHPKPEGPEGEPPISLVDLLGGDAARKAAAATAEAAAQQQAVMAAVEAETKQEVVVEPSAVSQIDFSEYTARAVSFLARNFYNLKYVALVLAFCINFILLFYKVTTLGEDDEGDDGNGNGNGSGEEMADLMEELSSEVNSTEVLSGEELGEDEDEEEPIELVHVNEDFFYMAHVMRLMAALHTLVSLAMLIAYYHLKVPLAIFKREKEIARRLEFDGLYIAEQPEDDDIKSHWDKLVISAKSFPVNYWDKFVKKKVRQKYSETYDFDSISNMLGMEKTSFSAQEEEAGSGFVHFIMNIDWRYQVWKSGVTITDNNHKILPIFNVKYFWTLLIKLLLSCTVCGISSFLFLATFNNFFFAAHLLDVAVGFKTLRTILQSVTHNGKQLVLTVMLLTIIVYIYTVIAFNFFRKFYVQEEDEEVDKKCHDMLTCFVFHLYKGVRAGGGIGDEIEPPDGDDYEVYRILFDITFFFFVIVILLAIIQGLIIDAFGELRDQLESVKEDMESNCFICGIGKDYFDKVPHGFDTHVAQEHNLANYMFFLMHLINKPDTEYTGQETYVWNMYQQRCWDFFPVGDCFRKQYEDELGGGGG
Experimental: Binding to Roach Femoral Muscle Membranes:
Assays were carried out in triplicate.

[2] = system: native cockroach ryanodine receptors (in embryonic neuronal cells); test: Calcium release assay, calcium imaging of embryonic cockroach neuronal cells (Fluo-4); format: cell-based, Periplaneta americana; conditions: for Calcium Release (P. americana): Table 6, result in words
From the text: Embryonic neuronal cultures of the American cockroach Periplaneta americana were established, with minor modifications, following the method of Beadle and Lees (1988) (in Cell Culture Approaches to Invertebrate Neuroscience, Academic Press, New York, pp 123-127). Briefly, 26-27-day old oothecae were collected, surface-sterilized and cut open along a line one-third of the distance below the dorsal midline. The heads were removed and placed in Schneider's Drosophila medium (Invitrogen Life Technologies™, Carlsbad, Calif.). Using fine forceps 40 brains were individually removed and placed in a small glass vial containing 700 μl of ‘5+4’ medium (‘5+4’ medium contained 5 parts Schneider's Drosophila medium plus 4 parts roach Basal Medium Eagle, with Earle's salts (BME, Sigma™, St. Louis, Mo.). Roach BME (with Earle's salts) contained 5 parts Hepes (1 M), 1 part penicillin/streptomycin and 44 parts BME (with Earle's salts). ‘5+4’ medium was made fresh and sterile filtered (0.2 μm filter) just prior to use). The brains were dissociated by sequential trituration as follows: 1) brains were passed through a standard Pasteur pipette 10 times; 2) the resulting tissue suspension was passed an additional 5 times through a Pasteur pipet with tip flamed to about half of its original diameter; 3) a final 5 passes were performed using a Pasteur pipet with tip flamed to slightly less than half of its original diameter. A repeat pipettor was used to dispense a 5 μl volume of the resulting suspension into the center of each well of a 96-well, glass-bottom plate previously coated with poly-L-lysine (0.2 mg/ml solution). Cells attached to the bottom of the wells during a 50 min incubation at 27-29° C. 150 ul of a 1:1 mixture of Leibovitz's L-15 medium and Yunker's modified Grace's medium was added, and plates were maintained in a humid incubator at 27-29° C. until use. After cells were allowed to attach wells were filled with a 1:1 mixture of Leibovitz's L-15 medium and Yunker's modified Grace's medium (Leibovitz's L-15 and Grace's medium were obtained from Invitrogen Life Technologies™, Carlsbad, Calif. and Yunker's modified Grace's medium was made with Grace's medium modified by addition of 5 mg L-methionine, 10 mg L-alanine, 182 mg MgCl2.6H20, 1 g Albumin Fraction V, 7 ml Fetal bovine serum, 10 ml Chick embryo extract, 2 ml Penicillin/Streptomycin, and 2 mg 20-hydroxyecdysone (prepared in ethanol prior to addition) to a final volume of 100 ml and sterile filtered (0.2 μm filter)). Cells were maintained in a high humidity incubator at 29° C. until testing.
The calcium imaging and acquisition protocols using roach neuronal cells is as follows:
Cells were rinsed in standard physiological saline having the following composition (mM): NaCl 190; CaCl2 9; KCl 3.1; probenicid 1; Tris buffer 10; pH 7.2. Cells were then bathed in standard physiological saline containing the calcium sensitive fluoroprobe Fluo-4 AM (2 μM) and Pluronic F127 (0.002%) for 45 min. Cells were then rinsed in standard physiological saline for at least 15 min prior to testing. Within the hour prior to testing, standard physiological saline was replaced with standard physiological saline containing the organic cation channel blocker pimozide (10 μM), to inhibit influx of external calcium through voltage-gated calcium channels. The 96-well plate was placed on a Prior™ motorized stage mounted onto a Nikon Diaphot microscope and imaged using a 20× Fluor objective (NA 0.75). Individual wells from the 96-well plate were sequentially excited with light at 495 nm, and the emitted fluorescence at 530 nm was detected using a Hamamatsu ORCA ER digital camera with 2 pixel binning (image size 672×512 pixels).
Acquisition control, image processing and image analysis were conducted using Universal Imaging Corporation's MetaMorph™ imaging software (Universal Imaging, West Chester, Pa.). A series of 3 “control” images were acquired for each well. […]

[3] = target: T1, recombinant Drosophila melanogaster ryanodine receptors (expressed in Sf9 cells) (Drosophila melanogaster, UniProt Q24498); format: cell-based; conditions: for Calcium Release (D. melanogaster): Table 6, result in words, receptor transiently or stably expressed in Sf9 cells; for Calcium Release Threshold (nM) D. melanogaster: receptor expressed in Sf9 cells
T1 construct: expressed in transfected cells
Experimental: The Spodoptera frugiperda cell line Sf9 used for transfection studies, was maintained in Sf-900 II SFM medium (Invitrogen Life Technologies™, Carlsbad, Calif.) in T-75 flasks incubated at 27° C. It is understood that those skilled in the art might choose alternative cell types such as the Spodoptera frugiperda cell line Sf21 or the Drosophila cell line S2. For the purpose of general handling and propagation, cells were suspended through scraping or agitation and a volume of cell suspension was added to each well of a poly-L-lysine coated 96-well, glass-bottom plate so as to provide 70-80% confluence. Cells were maintained in an incubator at 27° C. until testing.
SF900-II media was used to bring the final volume in the dish to 2 ml and the cells were incubated at 27 degrees C. for 21 h. Following the incubation the media was aspirated from the dish and replaced with 1 ml of SF900-II media pre-warmed to 27 degrees C.
The transient transfection was carried out following an InsectSelect BSD System manual (Invitrogen Life Technologies™, Carlsbad, Calif.). […] The transfection was accomplished by adding the transfection solution drop-wise to the dish and incubating 4 h at room temperature with gentle rocking. […]
(§1) Several drops of a suspension of recombinant Spodoptera frugiperda cell line, Sf9, transiently expressing insect ryanodine receptors were placed on a poly-L-lysine-coated coverslip and allowed to attach. Cells were then rinsed in physiological saline having the following composition (mM): NaCl 130; KCl 5.4; MgCl2 1.2; CaCl2 1.0; NaHCO3 4.2; NaH2P04 7.3; Glucose 10; Sucrose 63; MES 20; pH 6.3. Cells were then bathed in physiological saline containing the calcium sensitive fluoroprobe, Fura-2 AM (2 μM), and Pluronic F127 (0.002%) for 30 min. Cells were rinsed in standard physiological saline for at least 15 min prior to testing. Testing was conducted in standard physiological saline, as the cell lines are devoid of functional voltage-gated calcium channels.
Cell-attached coverslips were placed in a sealed chamber with physiological saline continuously perfused across the cells using a peristaltic pump. Test compounds solubilized in physiological saline were applied by switching the perfusate source.
(§2) For studies involving the stable recombinant Spodoptera frugiperda cell line, Sf9, (other cell lines could also be used such as Sf21, S2, etc) expressing an insect ryanodine receptor from Drosophila melanogaster, or Heliothis virescens (alternatively receptors from other species such as Myzus persicae, Peregrinus maidis, Aphis gossypii, etc) were grown in T75 (or other appropriate sized) flasks in supplemented Grace's insect medium. Cells were maintained in an incubator at 22° C. until testing. Cells were suspension-loaded with the calcium sensitive fluoroprobe, Fura-2 AM (1-2 μM) and Pluronic F127 (0.002%) in culture medium for 30 minutes under agitation. Cells were then centrifuged and the pellet resuspended in physiological saline having the following composition (mM): NaCl 130; KCl 5.4; MgCl2 1.2; CaCl2 1.0; NaHCO3 4.2; NaH2P04 7.3; Glucose 10; Sucrose 63; MES 20; pH 6.3 at approximately 150,000-200,000 cells per well (96-well plate). After a 30 minute equilibration period the cell plate was tested using a Molecular Devices' FlexStation™ system with dual wavelength excitation (340 and 380 nm) and fluorescence emission measured at 510 nm. Test and control samples were added using integrated fluidics and the intracellular calcium monitored over a 2 minute period.

[4] = system: control cells without DNA / wild-type Sf9 cells; test: Calcium response in control Sf9 cells (without DNA, lipid only, non-transfected, wild type); format: cell-based, Spodoptera frugiperda
From the text: as §1
Imaging studies were conducted using a Nikon Diaphot microscope with a 40× oil immersion objective (NA 1.3) Image acquisition and processing was performed using the MetaFluor™ imaging system from Universal Imaging Corporation (West Chester, Pa.) Calcium calibration was carried out using the Grynkiewicz equation with a dissociation constant (Kd) of 145 nM for Fura-2 (Grynkiewicz et al., 1985). Cell-attached coverslips were placed in a sealed chamber with physiological saline continuously perfused across the cells using a peristaltic pump. Test compounds solubilized in physiological saline were applied by switching the perfusate source.
as §2

[5] = system: recombinant Heliothis virescens ryanodine receptor (expressed in Sf9 cells); test: Calcium release assay, Sf9 cells transiently or stably expressing Heliothis virescens ryanodine receptor (Fura-2); format: cell-based; conditions: Cpd 5 3 μM; Sf9 transiently expressing H. virescens ryanodine receptor, 72 hr post-transfection; FIG. 4
Experimental: SF9 cells were grown at 27 degrees C. in a Corning 125 ml polycarbonate Erlenmeyer flask to a density of 3.1 million cells per ml in SF900-II serum free media (Gibco catalog no. 10902-088, Invitrogen™, Carlsbad, Calif.). One million cells were transferred to one well of a Corning 6-well, flat bottom cell culture dish (Corning Inc., Acton, Mass., catalog no. 3516). SF900-II media was used to bring the final volume in the dish to 2 ml and the cells were incubated at 27 degrees C. for 21 h. Following the incubation the media was aspirated from the dish and replaced with 1 ml of SF900-II media pre-warmed to 27 degrees C.
In the case of the vectors containing the Cre recognition elements, the transfection solution was mixed in a 1.5 ml microfuge tube by combining 5 ug of pHE7 plasmid, 5 ug of pMLS104 Cre plasmid and 0.5 ug of lacZ reporter plasmid, 15 ug of cellfectin reagent (Invitrogen cat. #10362-010) and SF900-II serum free media (Gibco catalog #10902-088, Invitrogen™, Carlsbad, Calif.) in a total volume of 500 ul. The solution was incubated for 1 hour at room temperature just prior to the transfection.
The transfection was accomplished by adding the transfection solution drop-wise to the dish and incubating 4 h at room temperature with gentle rocking. After the 4 h incubation the media was replaced with 2 ml of SF900-II media pre-warmed to 27 degrees C. and the cells were incubated 3 days at 27 degrees C.
as §1, with “Testing was conducted in standard physiological saline, as the cell lines are devoid of functional voltage-gated calcium channels.” left out
For studies involving the stable recombinant Spodoptera frugiperda cell line, Sf9, (other cell lines could also be used such as Sf21, S2, etc) expressing an insect ryanodine receptor from Drosophila melanogaster, or Heliothis virescens (alternatively receptors from other species such as Myzus persicae, Peregrinus maidis, Aphis gossypii, etc) were grown in T75 (or other appropriate sized) flasks in supplemented Grace's insect medium. […] After a 30 minute equilibration period the cell plate was tested using a Molecular Devices' FlexStation™ system with dual wavelength excitation (340 and 380 nm) and fluorescence emission measured at 510 nm. […]

Row | Molecule | IC50 [1] | Calcium Release Threshold (nM) P. americana [2] | Calcium Release Threshold (nM) D. melanogaster [3] | further results
1 | Ryanodine [reference compound] | – | – | – | Radioligand Displacement (P. americana) [1]: Inactive; Calcium Release (P. americana) [2]: Antagonist; Calcium Release (D. melanogaster) [3]: Antagonist
2 | Cc1cc(Cl)cc(C(=O)NC(C)C)c1NC(=O)c1cc(Cl)nn1-c1ncccc1Cl [Cpd 16] | < 300 nM | <300 nM | <300 nM | calcium response ([3]; Compound 16 10 and 100 nM, Sf9 transiently expressing D. melanogaster ryanodine receptor, 96 hr post-transfection, FIG. 3): calcium responses elicited; calcium response in control cells without DNA ([4]; Compound 16 10 and 100 nM): No significant calcium responses
3 | Cc1cccc(C(=O)NC(C)C)c1NC(=O)c1cc(C(F)(F)F)nn1-c1ccccc1Cl [Cpd 2] | < 300 nM | <300 nM | <300 nM | –
4 | CNC(=O)c1cc(Cl)cc(C)c1NC(=O)c1cc(C(F)(F)F)nn1-c1ncccc1Cl [Cpd 11] | < 300 nM | <300 nM | <300 nM | –
5 | N.N.N.N.N.N.N.N.N.N.N.N.N.N.[Cl-].[Cl-].[Cl-].[Cl-].[Cl-].[Cl-].[O-2].[O-2].[Ru+3].[Ru+3].[Ru+4] [Ruthenium Red, reference compound] | – | – | – | Radioligand Displacement (P. americana) [1]: Displacer; Calcium Release (P. americana) [2]: Inactive; Calcium Release (D. melanogaster) [3]: Antagonist
6 | Cc1cccc(C(=O)NC(C)C)c1NC(=O)c1cc(C(F)(F)F)nn1-c1ncccc1Cl [Cpd 5, 1-(3-Chloro-2-pyridinyl)-N-[2-methyl-6-[[(1-methylethyl)amino]carbonyl]phenyl]-3-(trifluoromethyl)-1H-pyrazole-5-carboxamide] | < 300 nM | – | <300 nM | cytosolic [Ca2+] response [5]: increase in cytosolic [Ca^2+]; calcium response in control cells without DNA ([4]; Compound 5 3 μM): No significant calcium responses
7 | [3H]c1cc(C)c(NC(=O)c2cc(C(F)(F)F)nn2-c2ccccc2F)c(C(=O)NC(C)C)c1 [Cpd 1, 1-(2-Fluorophenyl)-N-[2-methyl-4-tritio-6-[[(1-methylethyl)amino]carbonyl]phenyl]-3-(trifluoromethyl)-1H-pyrazole-5-carboxamide] | < 300 nM | – | <300 nM | –
